Results reported in patent publication US9458141B2, “Low molecular weight thyroid stimulating hormone receptor (TSHR) agonists” (The United States of America, as represented by the …, priority 2008, dated 2016).

Biological target: T1, human TSHR (Homo sapiens, UniProt P16473)
T1 construct: expressed in transfected cells
Test: Homogeneous Time Resolved Fluorescence (HTRF) cAMP assay, TSHR cell line
Type: cell-based
Conditions: for AC50: HTRF cAMP, TSHR cell line, 30 minute incubation, read-out: AC50; for Emax: read-out: Maximum Activity compared to TSH, 100% activity = response of 30 mU/ml TSH, 0% = DMSO control; for Maximum Activity compared to TSH: 100% activity = response of 30 mU/ml TSH, 0% = DMSO control, in %
Excerpt: Generation of Stable Cell-Lines Expressing TSHR, LHCGR or FSHR.
cDNA for human TSHR was amplified by PCR from hTSHR-pSVL (1) and inserted into the pcDNA3.1(−)/hygromycin vector using restriction sites XhoI and BamHI. cDNA for human LHCGR was amplified by PCR from hLHR-pGS5 (2) and was inserted into the pcDNA3.1(+)/hygromycin vector using restriction sites BamHI and XhoI. The FSHR cDNA in pcDNA3.1 was obtained from the Missouri S&T cDNA Resource Center (www.cDNA.org) and was subcloned into the pcDNA3.1(−)/hygromycin vector. Constructs were confirmed by sequencing (MWG Biotech). HEK-EM 293 cells were transfected with the cDNA of TSHR, LHCGR or FSHR using FuGENE 6 Transfection reagent (Roche Diagnostics) according to the manufacturer's protocol. Two days after transfection cells were passaged and grown in Dulbecco's modified Eagle's Medium (DMEM) supplemented with 10% fetal bovine serum, 100 units/ml penicillin and 10 μg/ml streptomycin (Life Technologies Inc.) and with hygromycin (250 μg/ml) as a selection marker. After 7 to 10 days hygromycin-resistant clones were selected, and after a few days of further growth submitted for a cAMP assay to identify clones that stably express the appropriate receptor. Cell Culture. Cells stably expressing TSHR, LHCGR or FSHR and parental HEK 293 cells were maintained in DMEM medium containing 10% FBS, 100 units/ml Penicillin, 100 μg/ml Streptomycin, at 37° C. in 5% CO2. For the cells lines stably expressing TSHR, LHCGR or FSHR, additional 250 μg/ml Hygromycin was added during the cell culture. The cells were seeded at a density of 3 to 4 million cells in a T175 flask containing 35 ml of media and were allowed to grow for 3 days to reach 80-90% confluence. A flask of HEK 293 cells at this density generally yielded 30 million cells total. Homogeneous Time Resolved Fluorescence (HTRF) cAMP Assay. Compounds were assayed using a HTRF cAMP detection kit (Cisbio, Bedford, Mass.) on both TSHR cell line and parental cell line. Briefly, 750 cells were plated in 2.5 μl/well of complete media (DMEM containing 10% FCS) in 1536 well solid bottom white plates and 20 nl/well compound in DMSO solution or controls was added. Following 30 minute incubation at room temperature, 2.5 μl/well of labeled d2 cAMP and 2.5 μl/well of anti-cAMP antibody (both diluted 1:20 in lysis buffer) were added to each well using a flying reagent dispenser (Aurora Discovery, San Diego). Plates were measured using the Envision plate reader (PerkinElmer, Boston, Mass.) with excitation at 330 nm and emissions of 615 nm and 660 nm. Compound Preparation. […] Data Analysis. […] The EC50 values of compounds were calculated from the concentration-response curves by nonlinear regression analysis using Prism software (GraphPad Software, San Diego, Calif.). Confirmatory cAMP Assay and Test for Selectivity Towards TSHR 50,000 cells/well were plated in complete media (DMEM containing 10% FCS) in 96 well plates. […] Following aspiration of the medium after incubation with compounds, cells were lysed using lysis buffer of the cAMP-Screen Direct™ System (Applied Biosystems, Cat # CSD200). The cAMP content of the cell lysate was determined using the manufacturer's protocol. […] Below is a List of Compounds that were Assayed via the Homogeneous Time Resolved Fluorescence (HTRF) cAMP Assay.

T1 sequence (P16473 21-764): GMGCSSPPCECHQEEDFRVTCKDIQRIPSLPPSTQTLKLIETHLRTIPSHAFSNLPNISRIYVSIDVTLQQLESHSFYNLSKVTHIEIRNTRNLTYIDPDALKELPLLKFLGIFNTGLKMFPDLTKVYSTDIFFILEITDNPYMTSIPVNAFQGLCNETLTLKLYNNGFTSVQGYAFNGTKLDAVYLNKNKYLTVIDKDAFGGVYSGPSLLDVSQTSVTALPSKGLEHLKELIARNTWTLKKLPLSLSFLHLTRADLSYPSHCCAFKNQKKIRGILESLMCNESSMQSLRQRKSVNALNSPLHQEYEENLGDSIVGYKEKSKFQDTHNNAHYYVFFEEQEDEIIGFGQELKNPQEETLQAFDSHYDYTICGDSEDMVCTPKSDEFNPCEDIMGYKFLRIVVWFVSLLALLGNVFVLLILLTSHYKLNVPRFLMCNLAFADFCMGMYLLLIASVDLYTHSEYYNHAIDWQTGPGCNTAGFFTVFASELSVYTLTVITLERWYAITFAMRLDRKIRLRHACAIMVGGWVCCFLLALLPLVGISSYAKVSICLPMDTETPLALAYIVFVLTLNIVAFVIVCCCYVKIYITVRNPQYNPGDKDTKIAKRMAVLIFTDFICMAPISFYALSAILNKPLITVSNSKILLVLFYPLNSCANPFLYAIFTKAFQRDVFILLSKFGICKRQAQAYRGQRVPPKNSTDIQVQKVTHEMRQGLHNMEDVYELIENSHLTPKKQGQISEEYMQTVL

## COc1ccc(-c2nc3ccccc3c(=O)n2Cc2ccco2)cc1COc1ccc(NC(C)=O)cc1 [Structure 33]
  AC50: 17.8 µM
  Emax: 169%

## COc1ccc(C2Nc3ccccc3C(=O)N2Cc2ccco2)cc1COc1ccc(NC(C)=O)cc1 (centres unmarked) [Structure 34]
  Maximum Activity compared to TSH: 122.30
  AC50: 15.8 µM

## COc1ccc(C2Oc3ccccc3C(=O)N2Cc2ccccc2)cc1COc1ccc(NC(C)=O)cc1 (centres unmarked) [Structure 35]
  Maximum Activity compared to TSH: 115.01
  AC50: 12.6 µM

## COc1ccc(C2Nc3ccc(NC(=O)CO)cc3C(=O)N2Cc2cccc(Cl)c2)cc1COc1ccc(NC(C)=O)cc1 (centres unmarked) [Structure 36]
  AC50: 5.62 µM
  Emax: 115%

## COc1ccc(C2Nc3ccccc3C(=O)N2Cc2ccccc2)cc1CSc1ccc(NC(C)=O)cc1 (centres unmarked) [Structure 38]
  Maximum Activity compared to TSH: 573.36
  AC50: 7.08 µM

## CCCCN1C(=O)c2ccccc2NC1c1ccc(OC)c(COc2ccc(NC(C)=O)cc2)c1 (centres unmarked) [Structure 39]
  Maximum Activity compared to TSH: 123.60
  AC50: 20 µM

## COc1ccc(CN(Cc2ccccc2)C(=O)c2ccccc2)cc1COc1ccc(NC(C)=O)cc1 [Structure 40]
  Maximum Activity compared to TSH: 128.80
  AC50: 11.2 µM

## COc1ccc(CN(Cc2ccccc2)C(=O)c2ccco2)cc1COc1ccc(NC(C)=O)cc1 [Structure 41]
  Maximum Activity compared to TSH: 122.50
  AC50: 15.8 µM

## COc1ccc(C2Nc3ccccc3C(=O)N2Cc2ccco2)cc1COc1ccc(NC(C)=O)cc1 (centres unmarked) [Structure 42]
  Maximum Activity compared to TSH: 131.51
  AC50: 14.1 µM

## COc1ccc(C2Nc3ccc(NC(=O)CO)cc3C(=O)N2Cc2cccc(Cl)c2)cc1COc1ccc(NC(C)=O)cc1 (centres unmarked) [Structure 43]
  Maximum Activity compared to TSH: 128.45
  AC50: 10 µM

## COc1ccc(C2Nc3ccccc3C(=O)N2Cc2cccc(Cl)c2)cc1COc1ccc(NC(C)=O)cc1 (centres unmarked) [Structure 44]
  Maximum Activity compared to TSH: 105.58
  AC50: 7.08 µM

## COc1ccc(C(=O)N(Cc2ccccc2)Cc2ccc(OC)c(COc3ccc(NC(C)=O)cc3)c2)cc1 [Structure 45]
  Maximum Activity compared to TSH: 141.85
  AC50: 14.1 µM

## COc1cccc(CN2C(=O)c3ccccc3NC2c2ccc(OC)c(COc3ccc(NC(C)=O)cc3)c2)c1 (centres unmarked) [Structure 46]
  Maximum Activity compared to TSH: 182.52
  AC50: 7.94 µM

## COc1ccc(-c2nc3ccccc3c(=O)n2Cc2ccco2)cc1COc1ccc(NC(C)=O)cc1 [Structure 47]
  Maximum Activity compared to TSH: 165.16
  AC50: 25.1 µM

## COc1ccc(C2Nc3ccc(NC(=O)COC(C)=O)cc3C(=O)N2Cc2ccccc2)cc1COc1ccc(NC(C)=O)cc1 (centres unmarked) [Structure 48]
  Maximum Activity compared to TSH: 106.48
  AC50: 8.91 µM

## COc1ccc(C2Nc3ccccc3C(=O)N2Cc2cccc(Cl)c2)cc1COc1ccc(NC(C)=O)cc1 (centres unmarked) [Structure 50]
  Maximum Activity compared to TSH: 70.37
  AC50: 2.82 µM

## COc1ccc(-c2nc3ccccc3c(=O)n2Cc2ccccc2)cc1COc1ccc(NC(C)=O)cc1 [Structure 52]
  Maximum Activity compared to TSH: 104.78
  AC50: 8.91 µM

## COc1ccc(C2Nc3ccccc3C(=O)N2Cc2ccco2)cc1COc1ccc(NC(C)=O)cc1 (centres unmarked) [Structure 53]
  Maximum Activity compared to TSH: 141.76
  AC50: 12.6 µM

## COc1ccc(C2Cc3ccccc3C(=O)N2Cc2ccccc2)cc1COc1ccc(NC(C)=O)cc1 (centres unmarked) [Structure 54]
  Maximum Activity compared to TSH: 115.69
  AC50: 10 µM

## COc1ccc(CN(Cc2ccccc2)C(=O)c2ccccc2)cc1COc1ccc(NC(C)=O)cc1 [Structure 57]
  Maximum Activity compared to TSH: 100.67
  AC50: 14.1 µM

## COc1ccc(CN(Cc2ccccc2)C(=O)c2ccccc2)cc1COc1ccc(NC(C)=O)cc1 [Structure 58]
  Maximum Activity compared to TSH: 93.09
  AC50: 8.91 µM

## COc1ccc(C2Nc3ccccc3C(=O)N2Cc2ccco2)cc1COc1ccc(NC(C)=O)cc1 (centres unmarked) [Structure 59]
  Maximum Activity compared to TSH: 226.43
  AC50: 17.8 µM

## COc1ccc(C2Nc3ccccc3C(=O)N2Cc2cccc(C(F)(F)F)c2)cc1COc1ccc(NC(C)=O)cc1 (centres unmarked) [Structure 60]
  Maximum Activity compared to TSH: 189.97
  AC50: 6.31 µM

## COc1ccc(C2Nc3cccc(O)c3C(=O)N2Cc2ccccc2)cc1COc1ccc(NC(C)=O)cc1 (centres unmarked) [Structure 61]
  Maximum Activity compared to TSH: 302.11
  AC50: 7.94 µM

## COc1ccc(-c2nc3ccccc3c(=O)n2Cc2ccccc2)cc1COc1ccc(NC(C)=O)cc1 [Structure 64]
  Maximum Activity compared to TSH: 70.53
  AC50: 7.94 µM

## COc1ccc(CN(Cc2ccccc2)C(=O)c2ccccc2O)cc1COc1ccc(NC(C)=O)cc1 [Structure 65]
  AC50: 14.1 µM
  Emax: 51.6%

## COc1ccc(C2Nc3ccc(NC(=O)COC(C)=O)cc3C(=O)N2Cc2ccccc2)cc1COc1ccc(NC(C)=O)cc1 (centres unmarked) [Structure 66]
  Maximum Activity compared to TSH: 64.52
  AC50: 8.91 µM

## COc1ccc(C2Nc3ccccc3C(=O)N2CCc2ccccc2)cc1COc1ccc(NC(C)=O)cc1 (centres unmarked) [Structure 67]
  Maximum Activity compared to TSH: 82.36
  AC50: 7.94 µM

## COc1ccc(CN(Cc2ccccc2)C(=O)C2CC2)cc1COc1ccc(NC(C)=O)cc1 [Structure 68]
  AC50: 22.4 µM
  Emax: 74.8%

## COc1ccc(CN(Cc2ccccc2)C(=O)c2ccncc2)cc1COc1ccc(NC(C)=O)cc1 [Structure 69]
  Maximum Activity compared to TSH: 44.83
  AC50: 25.1 µM

## COc1ccc(C2Nc3ccccc3C(=O)N2CCc2ccccc2)cc1COc1ccc(NC(C)=O)cc1 (centres unmarked) [Structure 70]
  Maximum Activity compared to TSH: 53.96
  AC50: 10 µM

## COc1ccc(CN(Cc2ccccc2)C(=O)c2cccc(C#N)c2)cc1COc1ccc(NC(C)=O)cc1 [Structure 71]
  Maximum Activity compared to TSH: 44.19
  AC50: 7.94 µM

## COc1ccc(C2Nc3ccccc3C(=O)N2Cc2ccc(Cl)cc2)cc1COc1ccc(NC(C)=O)cc1 (centres unmarked) [Structure 72]
  AC50: 3.98 µM
  Emax: 55.2%

## COc1ccc(CN(Cc2ccccc2)C(=O)c2ccc(O)cc2)cc1COc1ccc(NC(C)=O)cc1 [Structure 73]
  Maximum Activity compared to TSH: 75.04
  AC50: 28.2 µM

## COc1ccc(C2Nc3ccccc3C(=O)N2Cc2ccc(-c3ccccc3)cc2)cc1COc1ccc(NC(C)=O)cc1 (centres unmarked) [Structure 74]
  AC50: 2.82 µM
  Emax: 36%

## COc1ccc(CN(Cc2ccccc2)C(=O)c2cccc(C#N)c2)cc1COc1ccc(NC(C)=O)cc1 [Structure 75]
  Maximum Activity compared to TSH: 70.09
  AC50: 20 µM

## COc1ccc(C2Cc3ccccc3C(=O)N2Cc2ccccc2)cc1COc1ccc(NC(C)=O)cc1 (centres unmarked) [Structure 76]
  Maximum Activity compared to TSH: 64.77
  AC50: 6.31 µM

## COc1ccc(C2Nc3ccccc3C(=O)N2Cc2ccc(Cl)cc2)cc1COc1ccc(NC(C)=O)cc1 (centres unmarked) [Structure 77]
  Maximum Activity compared to TSH: 68.63
  AC50: 3.16 µM

## COc1ccc(C2Oc3ccccc3C(=O)N2Cc2ccccc2)cc1COc1ccc(NC(C)=O)cc1 (centres unmarked) [Structure 78]
  Maximum Activity compared to TSH: 66.16
  AC50: 8.91 µM

## COc1ccc(C2Nc3ccccc3C(=O)N2Cc2cccc(-c3ccccc3)c2)cc1COc1ccc(NC(C)=O)cc1 (centres unmarked) [Structure 79]
  Maximum Activity compared to TSH: 61.52
  AC50: 1.78 µM

## COc1ccc(-c2nc3ccc(NC(=O)CO)cc3c(=O)n2Cc2cccc(Cl)c2)cc1COc1ccc(NC(C)=O)cc1 [Structure 80]
  AC50: 22.4 µM
  Emax: 40%

## COc1ccc(CN(Cc2ccccc2)C(=O)C2CC2)cc1COc1ccc(NC(C)=O)cc1 [Structure 81]
  Maximum Activity compared to TSH: 76.98
  AC50: 15.8 µM

## COc1ccc(-c2nc3ccccc3c(=O)n2Cc2ccccc2)cc1CNc1ccc(CC(C)=O)cc1 [Structure 82]
  AC50: 25.1 µM
  Emax: 59%
